Test results from PMC7718273 (Scientific Reports, 2020).

Key:
DPP9 = biological target: T1, DPP9 (Homo sapiens, UniProt Q86TI2); assay: DPP9 activity, fluorometric assay with AMC substrate; format: biochemical; details: fluorometric assay using AMC substrates
T1 construct: purchased R&D Systems 5419-SE
Method: Recombinant human PREP (hPREP) (catalog no. 4308-SE), hDPP2/7 (catalog no. 3438-SE), hDPP9 (catalog no. 5419-SE), hFAP (catalog no. 3715-SE), and hDPP4 (catalog no. 9168-SE) proteins were from R&D Systems (Minneapolis, MN). Human FGF21 (catalog no. CRF159C) was from Cell Science (Newburyport, MA).
FAP enzyme activities were assayed in 20 mM Tris/HCl, 0.1 M NaCl, 1 mM EDTA (pH 8.0) in the presence of 40 μM Suc-Gly-Pro-Leu-Gly-Pro-AMC (#I-1350.0100, BACHEM, Bubendorf, Switzerland) and hFAP in a total volume of 100 µL. […] The inhibitor concentrations ranged from 100 μM to 0.03 nM, and its IC50 values were computed with commercially available curve-fitting programs such as the SigmaPlot. Other protease activities were determined in a similar manner.

[1] = Microsomal stability, human; format: in vitro ADME; details: liver microsomes, pH 7.4, 0.5 mg/mL, NADPH, read-out: Microsomal stability (% remaining at 60 min)
Method: (§1) Aliquots were then transferred in duplicate to: (i) a final concentration plate that was immediately quenched with 23.6 ng/mL internal standard (IS, chlorpropamide) in acetonitrile (ACN) or (ii) tubes, which were centrifuged for 5 min at 4℃ (14,000 rpm). The samples were subjected to LC–MS/MS analysis on an AB Sciex 4000 Q Trap hybrid triple quadrupole linear ion-trap MS (AB Sciex, Framingham, MA) coupled to an Agilent 1200 HPLC (Agilent Tech. Santa Clara, CA) with a reverse-phase Kinetex XB-C18 column (2.1 × 100 mm, 2.6 µm; Phenomenex). Mobile phases were comprised of 0.1% formic acid (FA) in water (A) and 0.1 FA in ACN (B). Data analysis was performed using […] (Ver. 1.6.1).

[2] = Microsomal stability, monkey; format: in vitro ADME; details: liver microsomes, pH 7.4, monkey (Mk), 0.5 mg/mL, NADPH, read-out: Microsomal stability (% remaining at 60 min)
Method: as §1

[3] = Microsomal stability, rat; format: in vitro ADME; details: liver microsomes, pH 7.4, rat (R), 0.5 mg/mL, NADPH, read-out: Microsomal stability (% remaining at 60 min)
Method: as §1

[4] = Microsomal stability, mouse; format: in vitro ADME; details: liver microsomes, pH 7.4, mouse (M), 0.5 mg/mL, NADPH, read-out: Microsomal stability (% remaining at 60 min)
Method: as §1

Plasma stability, rat = format: in vitro ADME; details: pH 7.4, rat (R), read-out: Plasma stability (% remaining at 60 min)
Method: as §1

[5] = Plasma protein binding, rat; format: in vitro ADME; details: rat (R), read-out: Plasma protein binding (% bound) (converted)
Method: Protein binding was conducted as described. Compound solutions prepared in DMSO were diluted in phosphate buffer (final concentration: 1 µg/mL), and added into human plasma (total volume: 1 mL). Aliquots were then transferred in duplicate to: (i) a final concentration plate that was immediately quenched with 23.6 ng/mL internal standard (IS, chlorpropamide) in ACN, (ii) a degradation control, which was placed in a water bath at 37℃ for 4 h, and (iii) ultracentrifuge tubes, which were centrifuged for 5 min at 4℃ (14,000 rpm). All reactions were stopped by the addition of ACN containing 23.6 ng/mL chlorpropamide. The samples were subjected to LC–MS/MS analysis.

serum FAP = serum FAP (Macaca fascicularis, UniProt A0A2K5VGH4); assay: IC50 on serum FAP, monkeys; format: biochemical; details: read-out: Serum FAP IC50 (nM): Monkey
ob/ob mice [6] = assay: Chronic study using ob/ob mice (4 weeks)
Description: (a) Nonfasting blood glucose levels in ob/ob mice. […] (g) The plasma levels of ALT (GPT), AST (GOT), TG, total cholesterol and NEFA in ob/ob mice. […] (i) Relative expression of genes related to intrahepatic lipogenic gene (GCK), fatty acid and TG synthesis genes (FASN, SREBP and APOC3, LIPIN1), β-oxidation genes (CPT1α, MCAD and PPARα) and FGF21 related genes (ATF4, CHOP, FGF21 and β-klotho) in liver and FGF21 related genes (AdipoQ and β-klotho) in white adipose tissue of ob/ob mice.
During the observation period, mice were monitored for glucose profiles and weighed. […] Under anesthesia, blood was promptly collected by orbital bleeding and then harvested. Liver tissue was then collected. Serum ALT, AST, TG, total cholesterol, and NEFA levels were assessed by KNOTUS (Incheon, Korea).

ob/ob mice [7] = assay: Acute study using ob/ob mice: blood glucose and intact hFGF21; details: for nonfasting blood glucose level, average: 3 h after administration
Method: Blood was collected at the indicated time points. (a) Nonfasting blood glucose levels were measured at the indicated time points. […] (c) Plasma intact hFGF21 levels were measured using ELISA kit at 1, 3, 6, and 9 h. All data are the means ± S.D. *P < 0.05, **P < 0.01 and *** P < 0.001 vs. vehicle group.
Blood was promptly collected by orbital bleeding that was allowed to clot, and supernatant was collected after centrifugation at 4 °C at 3000 rpm. Serum intact FGF21 concentrations were measured by intact hFGF21 ELISA (Alpco, Keewaydin Dr, Salem, NH, catalog no. 43-FGFHU-E01)[29].

T1 sequence (Q86TI2 whole entry): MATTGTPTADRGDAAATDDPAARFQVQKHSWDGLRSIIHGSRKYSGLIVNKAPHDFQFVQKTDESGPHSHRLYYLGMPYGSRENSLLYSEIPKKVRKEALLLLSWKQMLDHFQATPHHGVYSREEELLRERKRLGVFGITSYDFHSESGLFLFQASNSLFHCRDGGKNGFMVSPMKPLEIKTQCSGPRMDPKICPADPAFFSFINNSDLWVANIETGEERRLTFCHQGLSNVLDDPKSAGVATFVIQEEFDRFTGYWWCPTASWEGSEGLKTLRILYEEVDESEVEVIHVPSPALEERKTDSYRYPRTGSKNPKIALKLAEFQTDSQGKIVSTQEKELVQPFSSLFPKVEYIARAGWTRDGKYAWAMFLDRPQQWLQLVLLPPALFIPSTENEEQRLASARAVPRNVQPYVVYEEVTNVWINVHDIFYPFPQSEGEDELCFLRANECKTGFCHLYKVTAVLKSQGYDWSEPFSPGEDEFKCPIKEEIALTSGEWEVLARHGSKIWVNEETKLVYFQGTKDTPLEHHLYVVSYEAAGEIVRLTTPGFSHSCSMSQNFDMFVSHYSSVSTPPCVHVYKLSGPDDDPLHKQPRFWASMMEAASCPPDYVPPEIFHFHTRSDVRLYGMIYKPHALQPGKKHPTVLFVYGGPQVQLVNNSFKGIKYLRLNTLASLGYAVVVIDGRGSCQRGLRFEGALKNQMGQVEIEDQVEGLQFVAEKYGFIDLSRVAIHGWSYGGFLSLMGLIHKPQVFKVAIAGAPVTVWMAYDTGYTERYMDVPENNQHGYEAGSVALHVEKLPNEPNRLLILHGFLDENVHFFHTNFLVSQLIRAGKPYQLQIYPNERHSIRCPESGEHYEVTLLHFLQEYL
Chain of serum FAP (A0A2K5VGH4 entry or part of it): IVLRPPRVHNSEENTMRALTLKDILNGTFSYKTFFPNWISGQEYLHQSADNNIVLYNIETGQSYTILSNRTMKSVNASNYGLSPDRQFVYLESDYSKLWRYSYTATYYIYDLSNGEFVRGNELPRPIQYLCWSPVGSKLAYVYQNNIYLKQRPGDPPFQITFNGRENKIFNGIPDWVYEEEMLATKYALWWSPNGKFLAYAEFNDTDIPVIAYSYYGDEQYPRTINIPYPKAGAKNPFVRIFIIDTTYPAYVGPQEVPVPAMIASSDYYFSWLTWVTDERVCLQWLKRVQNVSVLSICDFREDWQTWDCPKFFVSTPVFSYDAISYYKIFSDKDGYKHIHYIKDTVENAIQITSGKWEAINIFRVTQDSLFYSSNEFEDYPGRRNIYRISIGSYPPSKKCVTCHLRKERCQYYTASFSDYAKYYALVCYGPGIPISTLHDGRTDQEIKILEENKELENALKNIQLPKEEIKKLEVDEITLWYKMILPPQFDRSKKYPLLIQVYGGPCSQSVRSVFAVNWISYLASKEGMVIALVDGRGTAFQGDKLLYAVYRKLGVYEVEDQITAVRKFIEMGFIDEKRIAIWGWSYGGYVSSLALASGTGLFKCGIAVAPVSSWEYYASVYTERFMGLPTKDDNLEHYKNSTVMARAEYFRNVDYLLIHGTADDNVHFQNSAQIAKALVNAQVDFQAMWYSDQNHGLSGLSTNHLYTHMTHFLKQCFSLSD

SMILES: N#Cc1ccc(Cc2nc(C(=O)NCC(=O)N3CC(F)(F)C[C@H]3C#N)cs2)cc1 [BR103354, (S)-N-(2-(2-cyano-4,4-difluoropyrrolidin-1-yl)-2-oxoethyl)-2-(4-cyanobenzyl)thiazole-4-carboxamide]
- IC50 (DPP9): 5040 nM
- remaining at 1 h, 1 µM [1]: 95%
- remaining at 1 h, 1 µM [2]: 81%
- remaining at 1 h, 1 µM [3]: 87%
- remaining at 1 h, 1 µM [4]: 98%
- remaining at 1 h, 1 µM (Plasma stability, rat): 79%
- fraction unbound at 1 µg/mL [5]: 0.4
- IC50 (serum FAP): 27 nM
- glucose tolerance (oral glucose tolerance test) (ob/ob mice [6]; 50 mg/kg): improved glucose tolerance significantly
- FGF21, ATF4 and CHOP mRNA expression in liver (ob/ob mice [6]; 4 weeks): increased
- liver TG content (Oil red O staining) (ob/ob mice [6]; 4 weeks): decreased
- body weight between treatments (ob/ob mice [6]; 4 weeks (data not shown)): no change
- ERK phosphorylation in adipose tissues (ob/ob mice [6]; 4 weeks, vs vehicle): increased
- Serum alanine aminotransferase (ALT) (ob/ob mice [6]; 4 weeks, vs vehicle): significantly reduced
- aspartate aminotransferase (AST) (ob/ob mice [6]; 4 weeks, vs vehicle): significantly reduced
- non-esterified free fatty acid (NEFA) levels (ob/ob mice [6]; 4 weeks, vs vehicle): unaltered
- serum TG (ob/ob mice [6]; 4 weeks, vs vehicle): unaltered
- total cholesterol (ob/ob mice [6]; 4 weeks, vs vehicle): significantly reduced
- nonfasting blood glucose (ob/ob mice [6]; 20 and 50 mg/kg once daily p.o., from 2 weeks, vs vehicle (P < 0.01)): significantly decreased
- increase of total form of serum FGF21 (ob/ob mice [6]; 20 and 50 mg/kg, week 4): approximately 1.4 fold
- adiponectin level in white adipose tissues (ob/ob mice [6]; after 4 weeks of treatment): increased
- fasting blood glucose levels (ob/ob mice [6]; after 4 weeks of treatment): significantly reduced
- fasting body weights (ob/ob mice [6]; after 4 weeks of treatment): significantly reduced
- insulin levels (ob/ob mice [6]; after 4 weeks of treatment): significantly reduced
- liver weights (ob/ob mice [6]; after 4 weeks of treatment): significantly reduced
- nonfasting blood glucose level, average (ob/ob mice [7]; 20 mg/kg p.o. + hFGF21 0.1 mg/kg i.p.): 178 mg/dL
- nonfasting blood glucose level, average (ob/ob mice [7]; 50 mg/kg p.o. + hFGF21 0.1 mg/kg i.p.): 154 mg/dL
- decrease of blood glucose AUC (ob/ob mice [7]; 20 or 50 mg/kg p.o. + hFGF21 0.1 mg/kg i.p.): 40–45%
- levels of intact FGF21 in plasma (ob/ob mice [7]; co-administered with hFGF21 0.1 mg/kg, until 3 h): increased levels of intact FGF21 in plasma until 3 h
- levels of intact FGF21 (ob/ob mice [7]; co-administered with hFGF21, after 6 h of administration): lower than 10 ng/mL
